US4902690A, “Pest controlling compositions” (The General Hospital Corporation, priority 1988, dated 1990)
Values joined by “and” are separate entries in the source; they are usually repeats but may differ in a detail not shown here. Equal entries are not always repeated. Values belong to the compound of their own block, whether it stands above or below them.

Legend:
[1] = test system: tobacco hornworms (Manducca sexta); test: In vivo leaf test (feeding on sprayed tomato leaves); conditions: for effect of adding IBMX on antifeeding / pesticidal activity of the compound: IBMX 0.1%, FIGS. 9, 10, 17, Tables 4, 7, 8, FIG. 9 at 72 hours; for relative antifeeding potency: dose sprayed on tomato leaves; for antifeeding activity of the compound by itself: FIGS. 10, 13, 17, Table 8; for activity as synergist of DDCDM: FIGS. 14, 15, 16, 8-phenyl-theophylline 0.1% with 0.1% DDCDM compared with 0.1% IBMX; for state of the leaf 72 hours after treatment: 0.1% of each compound, FIG. 11
[2] = test system: adenylate cyclase in nerve cord of tobacco hornworm; test: Octopamine agonist activity, adenylate cyclase in broken cell preparations of insect nerve cord; format: biochemical, tobacco hornworm (Manducca sexta); conditions: FIG. 3
Experimental: In addition to the above method employing the firefly light organ, octopamine-sensitive adenylate cyclase can also be measured in tissue preparations from the nerve cord of any desired particular insect pest, using a modification of the method appearing in Nathanson et al. (Science 180:308-310 (1973)) herein incorporated by reference. […]. […] Otherwise, the procedure is identical to that described above.
[…]. The tissue is homogenized (usually 15 mg/ml) as above in 6 mM Tris maleate, pH 7.4. […]. This is done to cancel out the effects of dopamine and serotonin receptors which are usually present in nerve cord. It assures that the compound (B) tested is affecting only octopamine receptors (known to be present in all insect nerve cords).

[3] = test system: octopamine-sensitive adenylate cyclase (firefly lantern octopamine receptor); test: Octopamine-sensitive adenylate cyclase activation, firefly light organ broken cell preparation; format: biochemical, firefly (Photinus pyralis)
[4] = test system: phosphodiesterase enzyme of hornworm nerve cord; test: PDE inhibitory activity, hornworm nerve tissue; format: biochemical, tobacco hornworm (Manducca sexta); conditions: FIG. 8
Description: (§1) The ability of any compound (A) to inhibit phosphodiesterase (PDE) activity in broken cell preparations of firefly lantern or in pest tissues can be determined either (1) by measuring the decrease in rate of hydrolysis of an added amount of cyclic AMP by PDE (see Methods Section of Nathanson et al., Mol. Pharmacol. 12:390-398 (1975)), or (2) by measuring the rate of accumulation of one of the breakdown products of cyclic AMP, such as 5'-AMP or adenosine (see method of Filburn et al., Anal. Biochem. 52:505-516 (1973)). Both of these are herein incorporated by reference.
(§2) In this assay (modified slightly from Filburn and Karn (Analyt. Biochem. 52: 505-516 (1973)), the rate of hydrolysis of labeled cyclic AMP to 5'-AMP by PDE is measured by converting the breakdown product (5'-AMP) to adenosine, which can be separated and measured by alumina chromatography. Specifically, tissue from either the firefly lantern or pest is homogenized (10-20 mg/ml) in 6 mM Tris-maleate buffer, pH 7.4. The hydrolysis reaction is run in test tubes containing (in 100 microliters): 80 mM Tris maleate, pH 7.4; 6 mM MgSO4; 10 pmoles tritiated cyclic AMP (2×10^4 to 2×10^5 cpm, depending upon the activity of the enzyme); 20 microliters of tissue homogenate; and various concentrations of the compound to be tested. In those cases in which the compound is insoluble in aqueous solution at pH 7.4, pH can be varied between pH 6.5 and 9.0 for optimization of solubility. In addition, the test compound can be initially solubilized in either 100% methanol or DMSO and diluted to a final concentration of 10% methanol or DMSO in the assay (in which case solvent controls are run in parallel).
The reaction is started by the addition of homogenate, run for 4 min at 37° C., and terminated by boiling for 90 sec. […] The void volume is discarded and the column is then eluted with 2 ml of 0.1N ammonium acetate, pH 4.0, the eluent collected and counted by liquid scintillation spectrometry. […]

[5] = test system: cyclic AMP content of intact nerve cords of tobacco hornworms; test: Cyclic AMP content of intact nerve cords incubated in vitro; format: cell-based, tobacco hornworm (Manducca sexta); conditions: 100 micromoles/liter of IBMX, 5 minutes in vitro; without PDE inhibitor 8.9±1.6
Manducca eggs = test: Ovacidal test (eggs dipped in drug solutions); format: in vivo, Manducca sexta; conditions: IBMX 0.1 g/100 ml alone (C* = no agonist); control without IBMX 80
Experimental: In some cases, test agents were tested for ovacidal activity by dipping groups of 10-50 Manducca eggs in drug solutions for 60 seconds and then determining the percentage of eggs which produced viable larvae. A compound or synergist with active ovacidal activity was one which decreased the percentage of eggs hatched, relative to control.

[6] = test system: Firefly phosphodiesterase enzyme; test: PDE inhibitory activity, firefly lantern; format: biochemical, firefly (Photinus pyralis); conditions: for phosphodiesterase inhibition: FIG. 6
Description: as §1
Generally, any compound capable of maximally inhibiting PDE activity by at least 50% (Vmax -inhibition) and preferably by at least 80% is preferred. Also, in terms of the concentration of the compound required for such inhibition, this can be quantitated by determining the IC 50-inhibition, i.e., the concentration of the compound required to cause 50% of the maximal inhibitioncaused by the compound at any concentration.
as §2
The reaction is started by the addition of homogenate, run for 4 min at 37° C., and terminated by boiling for 90 sec. The 5'AMP formed is then converted to adenosine by the addition of 20 microliters of an aqueous solution of 0.5 Units/ml of 5'-nucleotidase (Sigma, Grade IV), vortexed, and incubated for 30 minutes at 37° C. The second reaction is stopped by addition of 0.4 ml of 0.1N ammonium acetate, pH 4.0. The entire sample is then applied to a 0.5×8 cm column containing neutral alumina prewashed with 20 ml of 0.1N ammonium acetate, pH 4.0. The void volume is discarded and the column is then eluted with 2 ml of 0.1N ammonium acetate, pH 4.0, the eluent collected and counted by liquid scintillation spectrometry. Activity is cpms above that due to a blank which was initially incubated for 0 seconds in the first reaction.

[7] = test system: adenylate cyclase, nerve cord of tobacco hornworm larvae; test: Direct activation of adenylate cyclase, broken cell preparations of hornworm nerve cord; conditions: FIG. 5
[8] = test system: adenylate cyclase in firefly lantern; test: Direct activation of adenylate cyclase in firefly lantern; format: biochemical, firefly (Photinus pyralis); conditions: FIG. 4
Experimental: The second type of pest controlling compounds (B2) useable in the present compositions are direct stimulators of the pest enzyme adenylate cyclase. These compounds bypass the receptor, and interact with one or another of the associated catalytic or regulatory subunits of adenylate cyclase, thereby stimulating the formation of cyclic AMP. Suitable compounds can be determined from assay of pest adenylate cyclase as described above.
Adenylate cyclase activation by test compounds was measured in test tubes containing (in 0.3 ml) 80 mM Tris-maleate, pH 7.4; 10 mM theophylline; 8 mM MgCl2; 0.1 mM GTP; 0.5 mM ethylene glycol bis (beta-aminoethyl ether)-N,N,N'N'-tetraacetic acid; 2 mM ATP; 0.06 ml of P2 fraction; and the various compounds to be tested. Prior experiments had determined that, under these conditions, octopamine-sensitive adenylate cyclase activity is optimized. Test compounds were initially solubilized (prior to aqueous dilution) in water or (if soluble) in 50% (v/v) methanol. If insoluble in 50% methanol, compounds may be dissolved initially in 100% methanol, or 100% dimethylsulfoxide, or 100% polyethylene glycol. […] Cyclic AMP in the supernatant was measured by protein-binding assay, according to the method of Brown et al., Adv. […] Protein concentration was determined by the method of Lowry et al., Journal of Biological Chemistry 193:265-275 (1951). […]

[9] = agonist 10^-1 gm/100 ml + PDE Inhibitor IBMX 0.1 g/100 ml
[10] = agonist 10^-1 gm/100 ml, No PDE Inhibitor
[11] = agonist 10^-2 gm/100 ml + PDE Inhibitor IBMX 0.1 g/100 ml
[12] = agonist 10^-2 gm/100 ml, No PDE Inhibitor
[13] = agonist 10^-3 gm/100 ml + PDE Inhibitor IBMX 0.1 g/100 ml
[14] = agonist 10^-3 gm/100 ml, No PDE Inhibitor

SMILES: NCC(O)c1ccc(O)cc1 (racemic) [(±)-p-octopamine]
- effect of adding IBMX on antifeeding / pesticidal activity of the compound [1]: greatly increases the percent leaf remaining
- activation of adenylate cyclase in nerve cord [2]: potent activators of adenylate cyclase
- Vmax (% OCT) ([3]; Table 1, phenylethylamines, maximal activation as % of that by (±)-p-octopamine, N.A. = No Activity): 81 ± 1 % OCT and 100 ± 1 % OCT

SMILES: Cn1c(=O)c2[nH]c(-c3ccccc3)nc2n(C)c1=O [8-phenyl-theophylline]
- inhibition of phosphodiesterase activity (maximal) [4]: ≤ 30%
- inhibition of feeding (maximal, even at a high dose) ([1]; FIG. 13): ≤ 35%
- relative antifeeding potency ([1]; FIG. 13): shows the least activity
- antifeeding activity of the compound by itself [1]: little antifeeding activity
- activity as synergist of DDCDM [1]: much less activity as a synergist

SMILES: Cc1cc(Cl)ccc1N=CN [DDCDM, di-demethylchlordimeform]
- state of the leaf 72 hours after treatment [1]: eaten substantial amounts of the leaf
- % Leaf Remaining (increase over control) ([1]; DDCDM 0.1 g/100 ml alone): 0%
- % Leaf Remaining ([1]; agonist 1 gm/100 ml + PDE Inhibitor IBMX 0.1 g/100 ml): 100%
- % Leaf Remaining ([1]; agonist 1 gm/100 ml, No PDE Inhibitor): 100%
- % Leaf Remaining [1, 9]: 98%
- % Leaf Remaining [1, 10]: 30%
- % Leaf Remaining [1, 11]: 85%
- % Leaf Remaining [1, 12]: 7%
- % Leaf Remaining [1, 13]: 20%
- % Leaf Remaining [1, 14]: 5%
- activation of adenylate cyclase in nerve cord [2]: potent activators of adenylate cyclase
- Ka ratio ([3]; FIG. 1, formamidines): 4
- Vmax ([3]; FIG. 1, formamidines, % of octopamine): 68%

SMILES: CC(C)Cn1c(=O)n(C)c(=O)c2[nH]cnc21 [IBMX, isobutylmethylxanthine]
- pattern of PDE inhibition [4]: quite similar to that in the firefly light organ
- cyclic AMP content of hornworm nerve cord [5]: 21.4 ± 0.8 pmol/mg
- % Living Larvae (Manducca eggs): 90%
- state of the leaf 72 hours after treatment [1]: almost entirely consumed
- IBMX concentrations at which IBMX itself acted to inhibit feeding ([1]; FIG. 12): 0.4-5 gm/b 100 ml
- IBMX concentrations with no effect by itself and no increase of DDCDM activity ([1]; FIG. 12, DDCDM 0.1%): less than 0.001 gm/100 ml
- relative antifeeding potency ([1]; FIG. 13): more potent than theophylline
- antifeeding activity of the compound by itself [1]: very small inhibitory effect by itself
- phosphodiesterase inhibition [6]: more potent inhibitor of the enzyme

SMILES: Cc1cc(Cl)ccc1N=C1NCCN1 [NC 7]
- effect of adding IBMX on antifeeding / pesticidal activity of the compound [1]: substantial increases in the potency
- % Leaf Remaining ([1]; agonist 0.3 (3 × 10^-1) gm/100 ml + PDE Inhibitor IBMX 0.1 g/100 ml): 100%
- % Leaf Remaining ([1]; agonist 0.3 (3 × 10^-1) gm/100 ml, No PDE Inhibitor): 80%
- % Leaf Remaining [1, 9]: 95%
- % Leaf Remaining [1, 10]: 55%
- % Leaf Remaining [1, 11]: 85%
- % Leaf Remaining [1, 12]: 30%
- % Leaf Remaining [1, 13]: 48%
- % Leaf Remaining [1, 14]: 23%
- activation of adenylate cyclase in nerve cord [2]: potent activators of adenylate cyclase
- Ka^oct /Ka^B ratio ([3]; Table 2, clonidines, N.A. = no activity): 9.8

SMILES: Cn1c(=O)c2c(ncn2C)n(C)c1=O [caffeine]
- activity as synergist of DDCDM [1]: much more powerful in inhibiting leaf feeding than caffeine alone or DDCDM alone
- phosphodiesterase inhibition [6]: active as phosphodiesterase inhibitors

- Ka ratio [8]: 0.22
- Vmax [8]: 100%
SMILES: C=C[C@@]1(C)CC(=O)[C@]2(O)[C@@]3(C)[C@@H](O)CCC(C)(C)[C@@H]3[C@H](O)[C@H](OC(C)=O)[C@@]2(C)O1 [forskolin]
- Ka ratio [7]: 0.20
- Vmax [7]: about 100%
- antifeeding activity of the compound by itself [1]: has antifeeding activity
- effect of adding IBMX on antifeeding / pesticidal activity of the compound [1]: enhanced

SMILES: COc1ccc(C[C@H](N)C(=O)N[C@H]2[C@@H](O)[C@H](n3cnc4c(N(C)C)ncnc43)O[C@@H]2CO)cc1 [puromycin]
- activity as synergist of DDCDM [1]: able to synergize the pesticidal activity of DDCDM
- Vmax (maximal inhibition of PDE activity) ([6]; FIG. 7): greater than 70%
- IC50 ([6]; FIG. 7, read-out: IC50 -inhibition): < 2000 µM
